Reference: patent US20020026053A1, “Novel 3-(substituted) -2- indolinones compounds and use thereof as inhibitors of protein kinase activity” (priority 1997, published 2002)
Where “and” joins values, the source holds several entries; their conditions need not be identical. Identical values can stand only once. Like-named read-outs stand apart in the source and are kept apart here.

How the values were obtained:
FLK-1 receptor = experiment: FLK-1 Assay (cellular/catalytic ELISA, VEGF-stimulated phosphotyrosine); assay type: cell-based; design: concentration or dose not given beside the values
In short: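 NIH3T3 C7#3 cells engineered to express Flk-1 were serum-starved overnight (0.1% FBS), then exposed to compound for 2 h at 37 °C (final dilution 1:200, 0.5% DMSO) before VEGF stimulation. Lysates captured on anti-FLK-1 antiserum plates; phosphotyrosine detected by UB40 antibody/POD-ABTS ELISA versus untreated controls.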

PDGF-R = PDGF-R Assay (cellular ELISA, U1242 cells); assay type: cell-based; design: concentration or dose not given beside the values
In short: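 U1242 cells seeded in 0.5% serum, serum-starved, then exposed to compound for 2 hr at 37°C before 5–10 min ligand stimulation and lysis in HNTG. Lysate captured on receptor-antibody-coated plates; phosphotyrosine detected with polyclonal anti-pTyr, goat anti-rabbit IgG and ABTS/H2O2, A410 (ref 630 nm), versus untreated cells.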

Compound	Flk Kinase % Inhibition (P.110) (FLK-1 receptor) [%]	PDGF Kinase % Inhibition (P.119) (PDGF-R) [%]	Flk Kinase % Inhibition (P.110) (FLK-1 receptor; protocol P.110)
CCOc1ccccc1C=C1C(=O)Nc2c(Br)cc(Br)c(C)c21 [10717/H02]	4.0	–	–
Cc1c(Br)cc(Br)c2c1C(=Cc1cccs1)C(=O)N2 [10717/H03]	8.6	–	–
Cc1c(Br)cc(Br)c2c1C(=Cc1cccn1C)C(=O)N2 [10717/H04]	0.4	–	–
COc1ccc(C=C2C(=O)Nc3c(Br)cc(Br)c(C)c32)cc1OC [10720/H04]	−5.8	–	–
Cc1c(Br)cc(Br)c2c1C(=Cc1ccccc1O)C(=O)N2 [10720/H05]	−12.3	–	–
Cc1c(Br)cc(Br)c2c1C(=Cc1ccccc1)C(=O)N2 [10720/H06]	22.3	–	–
CSc1ccc(C=C2C(=O)Nc3c(Br)cc(Br)c(C)c32)s1 [10720/H07]	−2.9	–	–
Cc1cc(O)cc(O)c1C=C1C(=O)Nc2c(Br)cc(Br)c(C)c21 [10720/H08]	−23.7	–	–
CCOc1cc(C=C2C(=O)Nc3c(Br)cc(Br)c(C)c32)ccc1O [10720/H09]	−4.5	–	–
COc1ccc(O)c(C=C2C(=O)Nc3c(Br)cc(Br)c(C)c32)c1 [10720/H10]	−22.8	–	–
Cc1c(Br)cc(Br)c2c1C(=Cc1ncc[nH]1)C(=O)N2 [10720/H11]	−8.8	–	–
Cc1c(Br)cc(Br)c2c1C(=Cc1nc3ccccc3n1C)C(=O)N2 [10721/H02]	5.5	–	–
Cc1c(Br)cc(Br)c2c1C(=Cc1nn(C)cc1Cl)C(=O)N2 [10721/H03]	7.8	–	–
Cc1cc(C=C2C(=O)Nc3c(Br)cc(Br)c(C)c32)sc1C [10721/H04]	0.7	–	–
Cc1c(Br)cc(Br)c2c1C(=Cc1cc3c([nH]1)CCCC3)C(=O)N2 [10721/H05]	−8.4	–	–
Cc1c(Br)cc(Br)c2c1C(=Cc1cc([N+](=O)[O-])cc(CCl)c1O)C(=O)N2 [10721/H06]	−7.9	–	–
Cc1c(Br)cc(Br)c2c1C(=Cc1ccc(Cl)s1)C(=O)N2 [10721/H07]	−7.0	–	–
Cc1cc(C)c(C=C2C(=O)Nc3c(Br)cc(Br)c(C)c32)[nH]1 [10721/H08]	−6.8	–	–
Cc1c(Br)cc(Br)c2c1C(=Cc1ccc(O)c(C(C)(C)C)c1)C(=O)N2 [10721/H09]	7.0	–	–
Cc1c(Br)cc(Br)c2c1C(=Cc1cc(Br)c(O)c(C(C)(C)C)c1)C(=O)N2 [10721/H10]	10.2	–	–
Cc1c(Br)cc(Br)c2c1C(=Cc1cc(C(C)(C)C)c(O)c(C(C)(C)C)c1)C(=O)N2 [10721/H11]	−6.0	–	–

Compound	Flk Kinase % Inhibition (P.110) (FLK-1 receptor) [%]	PDGF Kinase % Inhibition (P.119) (PDGF-R) [%]	Flk Kinase % Inhibition (P.110) (FLK-1 receptor; protocol P.110)
Cc1c(Br)cc(Br)c2c1C(=Cc1cc([N+](=O)[O-])c(O)c(C(C)(C)C)c1)C(=O)N2 [10722/H02]	4.2	19.2	–
Cc1c(Br)cc(Br)c2c1C(=Cc1c(O)cc(O)cc1O)C(=O)N2 [10722/H03]	2.1	26.6	–
Cc1c(Br)cc(Br)c2c1C(=Cc1ccc([N+](=O)[O-])s1)C(=O)N2 [10722/H04]	3.8	−26.1	–
Cc1c(Br)cc(Br)c2c1C(=Cc1ccc(C(=O)O)cc1)C(=O)N2 [10722/H05]	4.3	0.9	–
Cc1c(Br)cc(Br)c2c1C(=Cc1ccc(F)cc1F)C(=O)N2 [10722/H06]	18.9	18.6	–
Cc1cc(C=C2C(=O)Nc3c(Br)cc(Br)c(C)c32)cc(C)c1O [10722/H07]	2.3	−16.9	–
Cc1c(Br)cc(Br)c2c1C(=Cc1cc(Cl)c(O)c(C(C)(C)C)c1)C(=O)N2 [10722/H08]	−20.3	−15.2	–
Cc1c(Br)cc(Br)c2c1C(=Cc1csc([N+](=O)[O-])c1)C(=O)N2 [10722/H09]	3.3	17.5	–
CCCCN(CCCC)c1ccc(C=C2C(=O)Nc3c(Br)cc(Br)c(C)c32)cc1 [10722/H10]	−14.1	7.2	–
Cc1c(Br)cc(Br)c2c1C(=Cc1ccc(C(F)(F)F)cc1)C(=O)N2 [10722/H11]	−3.3	15.7	–
Cc1c(Br)cc(Br)c2c1C(=Cc1ccc(O)c(O)c1O)C(=O)N2 [10723/H02]	9.0	20.7	–
COc1cccc(C=C2C(=O)Nc3c(Br)cc(Br)c(C)c32)c1O [10723/H03]	6.1	−30.6	–
Cc1c(Br)cc(Br)c2c1C(=Cc1cc(O)c(O)c(Br)c1)C(=O)N2 [10723/H04]	−20.2	53.3	–
CC(=O)Oc1ccc(C=C2C(=O)Nc3c(Br)cc(Br)c(C)c32)cc1OC(C)=O [10723/H05]	−2.5	−12.6	–
Cc1cc(C=C2C(=O)Nc3c(Br)cc(Br)c(C)c32)ccc1O [10723/H06]	10.6	−17.4	–
Cc1c(Br)cc(Br)c2c1C(=Cc1ccccc1Br)C(=O)N2 [10723/H07]	5.0	−20.9	–
Cc1c(Br)cc(Br)c2c1C(=Cc1ccc(O)cc1O)C(=O)N2 [10723/H08]	−4.2	4.1	–
COc1ccc(C=C2C(=O)Nc3c(Br)cc(Br)c(C)c32)c(O)c1 [10723/H09]	−0.4	15.9	–
Cc1c(Br)cc(Br)c2c1C(=Cc1cccc(Br)c1)C(=O)N2 [10723/H10]	−13.4	−22.3	–
Cc1c(Br)cc(Br)c2c1C(=Cc1cc(C(C)(C)C)cc(C(C)(C)C)c1O)C(=O)N2 [10723/H11]	−5.1	29.7	–
Cc1c(Br)cc(Br)c2c1C(=Cc1ccc(N(C)C)c3ccccc13)C(=O)N2 [10724/H02]	11.5	2.2	–

Compound	Flk Kinase % Inhibition (P.110) (FLK-1 receptor) [%]	PDGF Kinase % Inhibition (P.119) (PDGF-R) [%]	Flk Kinase % Inhibition (P.110) (FLK-1 receptor; protocol P.110)
Cc1c(Br)cc(Br)c2c1C(=Cc1ccc(O)c([N+](=O)[O-])c1)C(=O)N2 [10724/H03]	1.8	−7.6	–
Cc1c(Br)cc(Br)c2c1C(=Cc1ccc([N+](=O)[O-])c(O)c1)C(=O)N2 [10724/H04]	−3.0	−13.1	–
Cc1c(Br)cc(Br)c2c1C(=Cc1cc3c4c(c1O)CCCN4CCC3)C(=O)N2 [10724/H05]	−0.4	−19.4	–
Cc1c(Br)cc(Br)c2c1C(=Cc1cc(C(C)C)c(O)c(C(C)C)c1)C(=O)N2 [10724/H06]	−5.1	−20.8	–
Cc1c(Br)cc(Br)c2c1C(=Cc1cc3ccccc3o1)C(=O)N2 [10724/H07]	1.1	−39.6	–
COc1cc(O)c(C=C2C(=O)Nc3c(Br)cc(Br)c(C)c32)c(OC)c1 [10724/H08]	13.1	−9.0	–
Cc1c(Br)cc(Br)c2c1C(=Cc1cccn1-c1ccc(Cl)cc1)C(=O)N2 [10724/H09]	1.3	−13.1	–
CCc1ccc(C=C2C(=O)Nc3c(Br)cc(Br)c(C)c32)o1 [10724/H10]	5.8	−2.7	–
Cc1c(Br)cc(Br)c2c1C(=Cc1sc3scc(C)c3c1C)C(=O)N2 [10724/H11]	8.6	−31.2	–
Cc1c(Br)cc(Br)c2c1C(=Cc1sccc1Br)C(=O)N2 [10725/H02]	−7.6	−19.9	–
COc1ccc(Br)c(C=C2C(=O)Nc3c(Br)cc(Br)c(C)c32)c1O [10725/H03]	−5.8	−12.8	–
Cc1ccc(C=C2C(=O)Nc3c(Br)cc(Br)c(C)c32)o1 [10725/H04]	−5.1	−4.1	–
Cc1cc(C=C2C(=O)Nc3c(Br)cc(Br)c(C)c32)[nH]n1 [10725/H05]	21.6	14.6	–
COc1cc(C)cc(O)c1C=C1C(=O)Nc2c(Br)cc(Br)c(C)c21 [10725/H06]	16.1	6.9	–
Cc1c(Br)cc(Br)c2c1C(=Cc1ccc(N3CCN(C=O)CC3)cc1)C(=O)N2 [10725/H07]	8.6	2.6	–
Cc1c(Br)cc(Br)c2c1C(=Cc1ccc(N3CCOCC3)cc1)C(=O)N2 [10725/H08]	17.2	13.6	–
COC(=O)Cc1c(Cl)[nH]c(C=C2C(=O)Nc3c(Br)cc(Br)c(C)c32)c1C(=O)OC [10725/H09]	−6.1	9.3	–
Cc1c(Br)cc(Br)c2c1C(=Cc1c(Br)cnn1-c1ccc(Cl)cc1)C(=O)N2 [10725/H10]	7.8	12.2	–
Cc1c(Br)cc(Br)c2c1C(=Cc1c[nH]cn1)C(=O)N2 [10725/H11]	−40.8	16.5	–
Cc1ccc(C=C2C(=O)Nc3ccc(CCCl)cc32)cc1 [10736/G05]	–	–	2.3% and 5.9%
